The source of these data is patent US20120138147A1, “PHOTOELECTRIC CONVERSION ELEMENT, MANUFACTURING METHOD OF THE SAME AND ELECTRONIC EQUIPMENT” (Sony Corporation, priority 2010, published 2012).

The data set can be described thus: physchem. The text has this: Here, Ka is the dissociation equilibrium constant of a conjugate acid in water. This additive is typically a pyridine-based additive or an additive having a heterocycle. […] However, the pyridine-based additives are not limited thereto. On the other hand, among specific examples of additives having a heterocycle are N-methylimidazole(MIm), 2,4-lutidine(24-Lu), 2,5-lutidine(25-Lu), 2,6-lutidine(26-Lu), 3,4-lutidine(34-Lu) and 3,5-lutidine(35-Lu). However, the additives having a heterocycle are not limited thereto.

In the case of `Cn1cnc2ccccc21` [NMB], the “pKa (water)” value amounted to 5.6.
A word on the pKa: it is the negative logarithm of the acid dissociation constant. Consider `c1ccc2cnccc2c1` [isoquinoline], for which the pKa stood at 5.38.
For `c1ccc2c(c1)ccc1ncccc12` [56-benzoquinoline], the “pKa (water)” value came out at 5.15.
`COc1ccncc1` [4-MeO—py, 4-methoxypyridine]: the pKa came to 6.62 and the “pKa (water)” value was found to be 6.62.
For `COC(=O)c1cccnc1` [3-COOMe—Py], the “pKa (water)” value is given as 3.13.
In the case of `N#Cc1ccncc1` [4-CN—Py], the “pKa (water)” value stood at 1.9.
Molecule `c1ccnnc1` [pyridazine] had a pKa of 2.1.
For the molecule Me-pyrazole, the “pKa (water)” value was 2.1.
Consider `COc1cccnc1` [3-MeO—Py], for which the “pKa (water)” value was found to be 4.88.
The molecule `CC(C)(C)c1ccncc1` [TBP, 4-tert-butylpyridine] displayed a pKa of 5.99.
As for `c1cnccn1` [pyrazine], the pKa came to 0.6.
Consider `Cc1cccc(C)n1` [26-Lu, 2,6-lutidine], for which the pKa came to 6.77 and the “pKa (water)” value was 6.77.
`Nc1ccncc1` [4-NH2—Py]: the “pKa (water)” value was found to be 9.17.
The same measure, in the same setting: in the case of `Cc1ccncc1` [4-pic] it was 6.03.
`CCc1ccncc1` [4-Et—Py, 4-ethylpyridine]: the pKa came out at 6.04.
`Cc1ccncc1C` [34-Lu, 3,4-lutidine] came in with a pKa of 6.52.
In the case of `c1ccc(-c2ccccn2)nc1` [bpy], the “pKa (water)” value was 4.42.
For `c1ccc2nc3ccccc3cc2c1` [acridine], the pKa was 5.6.
`Cc1ccnc(C)c1` [24-Lu, 2,4-lutidine] registered a pKa of 6.72.
Molecule `Cc1cncc(C)c1` [35-Lu, 3,5-lutidine] yielded a pKa of 6.14.
As to `CNc1ccncc1` [4-MeNH—Py], the “pKa (water)” value amounted to 12.5.
For the molecule `Brc1cccnc1` [3-Br—Py], the “pKa (water)” value amounted to 2.84.
On to `c1ccc2ncccc2c1` [quinoline], for which the pKa was found to be 4.97.
Still for that read-out and setting: in the case of `Cc1ccc(C)nc1` [25-Lu, 2,5-lutidine] it was 6.47; in that of `Cn1ccnc1` [Mlm, N-methylimidazole], 7.3.
For the molecule `COc1ccccn1` [2-MeO—Py], the “pKa (water)” value came out at 3.28.
